Assays:
Type in all cases: in vivo
[1] = tested on: barnyardgrass (Echinochloa crus-galli); assay: Test A pre-/postemergence plant response; settings: for Barnyardgrass plant response rating: visual injury, 0 to 100 scale (0 no effect, 100 complete control), approx. ten days
In short: (§1)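 Injury was scored visually after roughly ten days against untreated controls, 0 = no effect, 100 = complete control. Test chemicals in a surfactant-containing non-phytotoxic solvent were sprayed either onto soil preemergence or onto one- to two-leaf, 2–10 cm plants postemergence.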

[2] = tested on: wheat (Triticum aestivum); assay: Test A pre-/postemergence plant response; settings: for Wheat plant response rating: visual injury, 0 to 100 scale (0 no effect, 100 complete control), approx. ten days
In short: as §1

[3] = tested on: large crabgrass (Digitaria sanguinalis); assay: Test A pre-/postemergence plant response; settings: for Crabgrass, Large plant response rating: visual injury, 0 to 100 scale (0 no effect, 100 complete control), approx. ten days
In short: as §1

[4] = tested on: morningglory (Ipomoea spp.); assay: Test A pre-/postemergence plant response; settings: for Morningglory plant response rating: visual injury, 0 to 100 scale (0 no effect, 100 complete control), approx. ten days
In short: as §1

[5] = tested on: velvetleaf (Abutilon theophrasti); assay: Test A pre-/postemergence plant response; settings: for Velvetleaf plant response rating: visual injury, 0 to 100 scale (0 no effect, 100 complete control), approx. ten days
In short: as §1

[6] = tested on: giant foxtail (Setaria faberii); assay: Test A pre-/postemergence plant response; settings: for Foxtail, Giant plant response rating: visual injury, 0 to 100 scale (0 no effect, 100 complete control), approx. ten days
In short: as §1

[7] = tested on: corn (Zea mays); assay: Test A pre-/postemergence plant response; settings: for Corn plant response rating: visual injury, 0 to 100 scale (0 no effect, 100 complete control), approx. ten days
In short: as §1

[8] = tested on: pigweed (Amaranthus retroflexus); assay: Test A pre-/postemergence plant response; settings: for Pigweed plant response rating: visual injury, 0 to 100 scale (0 no effect, 100 complete control), approx. ten days
In short: as §1

[9] = tested on: barnyardgrass (Echinochloa crus-galli); assay: Test B flooded paddy test; settings: for Plant response rating, Barnyardgrass: Flood (flooded paddy test), 13 to 15 days; for Barnyardgrass plant response rating: Flood, 31 g ai/ha, scale 0 to 100 (0 no effect, 100 complete control); for Plant response rating, Flood, Barnyardgrass: 250 g ai/ha, flooded paddy test, visual rating on 0 to 100 scale (0 no effect, 100 complete control) after 13 to 15 days
In short: (§2)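 Each compound is added to standing floodwater (3 cm above soil, maintained) in pots of 2-leaf-stage plants; greenhouse exposure lasts 13–15 d before visual comparison with controls on a 0–100 control scale.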

[10] = tested on: umbrella sedge (Cyperus difformis); assay: Test B flooded paddy test; settings: for Plant response rating, Sedge, Umbrella: Flood (flooded paddy test), 13 to 15 days; for Sedge, Umbrella plant response rating: Flood, 31 g ai/ha, scale 0 to 100 (0 no effect, 100 complete control); for Plant response rating, Flood, Sedge, Umbrella: 250 g ai/ha, flooded paddy test, visual rating on 0 to 100 scale (0 no effect, 100 complete control) after 13 to 15 days
In short: as §2

[11] = tested on: rice (Oryza sativa); assay: Test B flooded paddy test; settings: for Plant response rating, Rice: Flood (flooded paddy test), 13 to 15 days; for Rice plant response rating: Flood, 31 g ai/ha, scale 0 to 100 (0 no effect, 100 complete control); for Plant response rating, Flood, Rice: 250 g ai/ha, flooded paddy test, visual rating on 0 to 100 scale (0 no effect, 100 complete control) after 13 to 15 days
In short: as §2

[12] = tested on: ducksalad (Heteranthera limosa); assay: Test B flooded paddy test; settings: for Plant response rating, Ducksalad: Flood (flooded paddy test), 13 to 15 days; for Ducksalad plant response rating: Flood, 31 g ai/ha, scale 0 to 100 (0 no effect, 100 complete control); for Plant response rating, Flood, Ducksalad: 250 g ai/ha, flooded paddy test, visual rating on 0 to 100 scale (0 no effect, 100 complete control) after 13 to 15 days
In short: as §2

[13] = Postemergence, 125 g ai/ha, 0 to 100 scale where 0 is no effect and 100 is complete control
[14] = Preemergence, 125 g ai/ha, 0 to 100 scale, 0 = no effect, 100 = complete control
[15] = Preemergence, 500 g ai/ha, 0 to 100 scale, 0 = no effect, 100 = complete control
[16] = 125 g ai/ha, scale 0 to 100, 0 is no effect, 100 is complete control
[17] = 62 g ai/ha, scale of 0 to 100 where 0 is no effect and 100 is complete control

O=C1CCCC(O)=C1C(=O)c1cnc(-c2cc(F)cc(F)c2)n(CC2CCCO2)c1=O (centres unmarked) [Compound 180]
Plant response rating, Barnyardgrass [1, 13]: 90
Barnyardgrass plant response rating ([1]; Postemergence, 500 g ai/ha): 100
Plant response rating, Barnyardgrass [1, 14]: 30
Plant response rating, Barnyardgrass [1, 15]: 80
Plant response rating, Wheat [2, 13]: 0
Wheat plant response rating ([2]; Postemergence, 500 g ai/ha): 30
Plant response rating, Wheat [2, 14]: 0
Plant response rating, Wheat [2, 15]: 20
Plant response rating, Crabgrass, Large [3, 13]: 90
Crabgrass, Large plant response rating ([3]; Postemergence, 500 g ai/ha): 100
Plant response rating, Crabgrass, Large [3, 14]: 80
Plant response rating, Crabgrass, Large [3, 15]: 100
Plant response rating, Morningglory [4, 13]: 40
Morningglory plant response rating ([4]; Postemergence, 500 g ai/ha): 100
Plant response rating, Morningglory [4, 14]: 0
Plant response rating, Velvetleaf [5, 13]: 100
Velvetleaf plant response rating ([5]; Postemergence, 500 g ai/ha): 100
Plant response rating, Velvetleaf [5, 14]: 80
Plant response rating, Velvetleaf [5, 15]: 100
Plant response rating, Foxtail, Giant [6, 13]: 70
Foxtail, Giant plant response rating ([6]; Postemergence, 500 g ai/ha): 100
Plant response rating, Foxtail, Giant [6, 14]: 30
Plant response rating, Foxtail, Giant [6, 15]: 70
Plant response rating, Corn [7, 13]: 10
Corn plant response rating ([7]; Postemergence, 500 g ai/ha): 40
Plant response rating, Corn [7, 14]: 0
Plant response rating, Corn [7, 15]: 0
Plant response rating, Pigweed [8, 13]: 100
Pigweed plant response rating ([8]; Postemergence, 500 g ai/ha): 100
Plant response rating, Pigweed [8, 14]: 90
Plant response rating, Pigweed [8, 15]: 100
Plant response rating, Barnyardgrass [9, 16]: 15
Barnyardgrass plant response rating [9]: 0
Plant response rating, Sedge, Umbrella [10, 16]: 65
Sedge, Umbrella plant response rating [10]: 20
Plant response rating, Rice [11, 16]: 30
Rice plant response rating [11]: 15
Plant response rating, Ducksalad [12, 16]: 75
Ducksalad plant response rating [12]: 60

CCOCCn1c(-c2cc(F)cc(F)c2)ncc(C(=O)C2=C(O)CCCC2=O)c1=O [Compound 182]
Plant response rating, Barnyardgrass [1, 13]: 70
Barnyardgrass plant response rating ([1]; Postemergence, 500 g ai/ha): 90
Plant response rating, Barnyardgrass [1, 14]: 70
Plant response rating, Barnyardgrass [1, 15]: 90
Plant response rating, Wheat [2, 13]: 0
Wheat plant response rating ([2]; Postemergence, 500 g ai/ha): 50
Plant response rating, Wheat [2, 14]: 0
Plant response rating, Wheat [2, 15]: 50
Plant response rating, Crabgrass, Large [3, 13]: 80
Crabgrass, Large plant response rating ([3]; Postemergence, 500 g ai/ha): 90
Plant response rating, Crabgrass, Large [3, 14]: 100
Plant response rating, Crabgrass, Large [3, 15]: 100
Plant response rating, Morningglory [4, 13]: 100
Morningglory plant response rating ([4]; Postemergence, 500 g ai/ha): 100
Plant response rating, Morningglory [4, 14]: 70
Plant response rating, Morningglory [4, 15]: 80
Plant response rating, Velvetleaf [5, 13]: 100
Velvetleaf plant response rating ([5]; Postemergence, 500 g ai/ha): 100
Plant response rating, Velvetleaf [5, 14]: 70
Plant response rating, Velvetleaf [5, 15]: 100
Plant response rating, Foxtail, Giant [6, 13]: 50
Foxtail, Giant plant response rating ([6]; Postemergence, 500 g ai/ha): 80
Plant response rating, Foxtail, Giant [6, 14]: 50
Plant response rating, Foxtail, Giant [6, 15]: 80
Plant response rating, Corn [7, 13]: 0
Corn plant response rating ([7]; Postemergence, 500 g ai/ha): 20
Plant response rating, Corn [7, 14]: 0
Plant response rating, Corn [7, 15]: 20
Plant response rating, Pigweed [8, 13]: 80
Pigweed plant response rating ([8]; Postemergence, 500 g ai/ha): 100
Plant response rating, Pigweed [8, 14]: 90
Plant response rating, Pigweed [8, 15]: 100
Plant response rating, Barnyardgrass [9, 16]: 0
Barnyardgrass plant response rating [9]: 0
Plant response rating, Sedge, Umbrella [10, 16]: 75
Sedge, Umbrella plant response rating [10]: 50
Plant response rating, Rice [11, 16]: 0
Rice plant response rating [11]: 0
Plant response rating, Ducksalad [12, 16]: 85
Ducksalad plant response rating [12]: 60

Cc1ccc(F)cc1-n1c(-c2cc(F)cc(F)c2)ncc(C(=O)C2=C(O)CCCC2=O)c1=O [Compound 183]
Plant response rating, Barnyardgrass [1, 13]: 60
Barnyardgrass plant response rating ([1]; Postemergence, 500 g ai/ha): 90
Plant response rating, Barnyardgrass [1, 14]: 20
Plant response rating, Barnyardgrass [1, 15]: 100
Plant response rating, Wheat [2, 13]: 50
Wheat plant response rating ([2]; Postemergence, 500 g ai/ha): 80
Plant response rating, Wheat [2, 14]: 0
Plant response rating, Wheat [2, 15]: 50
Plant response rating, Crabgrass, Large [3, 13]: 80
Crabgrass, Large plant response rating ([3]; Postemergence, 500 g ai/ha): 100
Plant response rating, Crabgrass, Large [3, 14]: 90
Plant response rating, Crabgrass, Large [3, 15]: 100
Plant response rating, Morningglory [4, 13]: 40
Morningglory plant response rating ([4]; Postemergence, 500 g ai/ha): 70
Plant response rating, Morningglory [4, 14]: 20
Plant response rating, Morningglory [4, 15]: 50
Plant response rating, Velvetleaf [5, 13]: 100
Velvetleaf plant response rating ([5]; Postemergence, 500 g ai/ha): 100
Plant response rating, Velvetleaf [5, 14]: 100
Plant response rating, Velvetleaf [5, 15]: 100
Plant response rating, Foxtail, Giant [6, 13]: 80
Foxtail, Giant plant response rating ([6]; Postemergence, 500 g ai/ha): 100
Plant response rating, Foxtail, Giant [6, 14]: 60
Plant response rating, Foxtail, Giant [6, 15]: 90
Plant response rating, Corn [7, 13]: 10
Corn plant response rating ([7]; Postemergence, 500 g ai/ha): 80
Plant response rating, Corn [7, 14]: 0
Plant response rating, Corn [7, 15]: 0
Plant response rating, Pigweed [8, 13]: 100
Pigweed plant response rating ([8]; Postemergence, 500 g ai/ha): 100
Plant response rating, Pigweed [8, 14]: 90
Plant response rating, Pigweed [8, 15]: 100
Plant response rating, Flood, Barnyardgrass [9]: 35
Plant response rating, Barnyardgrass [9, 17]: 0
Plant response rating, Barnyardgrass [9, 16]: 0
Barnyardgrass plant response rating [9]: 0
Plant response rating, Flood, Sedge, Umbrella [10]: 90
Plant response rating, Sedge, Umbrella [10, 17]: 50
Plant response rating, Sedge, Umbrella [10, 16]: 65
Sedge, Umbrella plant response rating [10]: 0
Plant response rating, Flood, Rice [11]: 0
Plant response rating, Rice [11, 17]: 0
Plant response rating, Rice [11, 16]: 0
Rice plant response rating [11]: 0
Plant response rating, Flood, Ducksalad [12]: 95
Plant response rating, Ducksalad [12, 17]: 65
Plant response rating, Ducksalad [12, 16]: 80
Ducksalad plant response rating [12]: 30

O=C1CCCC(O)=C1C(=O)c1cnc(-c2ccco2)n(C2CCCCC2)c1=O [Compound 188]
Plant response rating, Barnyardgrass [1, 13]: 70
Barnyardgrass plant response rating ([1]; Postemergence, 500 g ai/ha): 90
Plant response rating, Barnyardgrass [1, 14]: 0
Plant response rating, Barnyardgrass [1, 15]: 30
Plant response rating, Wheat [2, 13]: 0
Wheat plant response rating ([2]; Postemergence, 500 g ai/ha): 0
Plant response rating, Wheat [2, 14]: 0
Plant response rating, Wheat [2, 15]: 0
Plant response rating, Crabgrass, Large [3, 13]: 80
Crabgrass, Large plant response rating ([3]; Postemergence, 500 g ai/ha): 90
Plant response rating, Crabgrass, Large [3, 14]: 30
Plant response rating, Crabgrass, Large [3, 15]: 70
Plant response rating, Morningglory [4, 13]: 90
Morningglory plant response rating ([4]; Postemergence, 500 g ai/ha): 100
Plant response rating, Morningglory [4, 14]: 70
Plant response rating, Morningglory [4, 15]: 80
Plant response rating, Velvetleaf [5, 13]: 100
Velvetleaf plant response rating ([5]; Postemergence, 500 g ai/ha): 100
Plant response rating, Velvetleaf [5, 14]: 70
Plant response rating, Velvetleaf [5, 15]: 80
Plant response rating, Foxtail, Giant [6, 13]: 40
Foxtail, Giant plant response rating ([6]; Postemergence, 500 g ai/ha): 80
Plant response rating, Foxtail, Giant [6, 14]: 10
Plant response rating, Foxtail, Giant [6, 15]: 40
Plant response rating, Corn [7, 13]: 0
Corn plant response rating ([7]; Postemergence, 500 g ai/ha): 10
Plant response rating, Corn [7, 14]: 0
Plant response rating, Corn [7, 15]: 0
Plant response rating, Pigweed [8, 13]: 90
Pigweed plant response rating ([8]; Postemergence, 500 g ai/ha): 100
Plant response rating, Pigweed [8, 14]: 60
Plant response rating, Pigweed [8, 15]: 80
Plant response rating, Flood, Barnyardgrass [9]: 0
Plant response rating, Barnyardgrass [9, 17]: 0
Plant response rating, Flood, Sedge, Umbrella [10]: 85
Plant response rating, Sedge, Umbrella [10, 17]: 80
Plant response rating, Flood, Rice [11]: 15
Plant response rating, Rice [11, 17]: 0
Plant response rating, Flood, Ducksalad [12]: 85
Plant response rating, Ducksalad [12, 17]: 70

Reference: US8952024B2, “Herbicidal pyrimidone derivatives” (E I du Pont de Nemours and Company, priority 2009, dated 2015)
